Experiments:
B. fragilis ATCC 10240 = assay: micro-dilution broth method (MIC, MBC); type: cell-based, Bacteroides fragilis
H. pylori ATCC 43504 = assay: micro-dilution broth method (MIC, MBC); type: cell-based
M. luteus ATCC 10240 = assay: micro-dilution broth method (MIC, MBC); type: cell-based, Micrococcus luteus
[1] = tested on: S. typhimurium ATCC 14028; assay: micro-dilution broth method (MIC, MBC); type: cell-based, Salmonella Typhimurium
A. israeli ATCC 10049 = assay: micro-dilution broth method (MIC, MBC); type: cell-based, Actinomyces israelii
HepG2 cells [2] = assay: TPC assay (total protein content), 72 h exposure; type: cell-based, human; settings: mean ± SD, n = 3
Description: (§1) The human hepatoma (HepG2) and colorectal adenocarcinoma (Caco-2) cells were purchased from the American Type Culture Collection: ATCC HB-8065 and ATCC HTB-37, respectively. These cells were cultured in Minimum Essential Medium Eagle (MEME) (ATCC). The murine fibroblasts cell line (Balb/c 3T3 clone A31) (gift from the Department of Swine Diseases of the National Veterinary Research Institute in Pulawy) was cultured in Dulbecco’s Modified Eagle Medium (DMEM) (ATCC). The media were supplemented with 10% BCS (Balb/c 3T3), 10% FBS (HepG2), 20% FBS (Caco-2), 1% L-glutamine, 1% antibiotic solution. The cells were maintained in 75 cm^2 cell culture flasks (NUNC) in a humidified incubator at 37 °C in an atmosphere of 5% CO2. The medium was refreshed every two or three days, and the cells were trypsinized by 0.25% trypsin–0.02% EDTA after reaching 70–80% confluence. Single cell suspensions were prepared and adjusted to a density of 2 × 10^5 cell/mL^−1 (HepG2), 1 × 10^5 cell/mL^−1 (Caco-2) and 5 × 10^4 cell/mL^−1 (Balb/c 3T3). The cell suspension was transferred to 96-well plates (100 µL/well) and incubated for 24 h before the exposure to the studied compounds. Stock solutions of ligands and metal complexes were prepared in sterile water and diluted with culture medium to obtain a concentration range from 0.1 to 10 µM. The final concentration of sterile water was 0.1% in the medium. […] As a negative control, cultured cells were grown in the absence of studied compounds. Each concentration was tested in six replicates in three independent experiments. Cytotoxicity was assessed after 72 h of exposure of the cells to compounds. The medium was not changed during the incubation time.
This assay is based upon staining the total cellular protein (proliferation). After the incubation, the medium containing the drug was removed, and 100 µL Coomassie brilliant blue R-250 dye was added to each well. The plate was shaken for 10 min. Then, the stain was removed and the cells were rinsed twice with 100 µL of washing solution (glacial acetic acid/ethanol/water, 5:10:85, v:v:v). After that, 100 µL of the desorbing solution (1 M potassium acetate) was added, and plates were shaken again for 10 min. The absorbance was measured at 595 nm in a microplate reader Synergy HTX multi-mode reader (BioTek® Instruments Inc., Winooski, VT, USA) using a blank as a reference. Cytotoxicity was expressed as a percentage of the negative control.
The study was performed in three independent experiments. The obtained results are presented as mean values ± SD (standard deviation). The assessment of the cytotoxicity data used a one-way analysis of variance (ANOVA) followed by Dunnett’s post hoc test, which was applied to determine significance relative to the negative control.

S. aureus ATCC 25923 = assay: micro-dilution broth method (MIC, MBC); type: cell-based, Staphylococcus aureus
B. cereus ATCC 10876 = assay: micro-dilution broth method (MIC, MBC); type: cell-based, Bacillus cereus
P. acnes ATCC 11827 = assay: micro-dilution broth method (MIC, MBC); type: cell-based, Propionibacterium acnes
V. parvula ATCC 10790 = assay: micro-dilution broth method (MIC, MBC); type: cell-based, Veillonella parvula
F. nucleatum ATCC 25586 = assay: micro-dilution broth method (MIC, MBC); type: cell-based, Fusobacterium nucleatum
E. coli ATCC 25922 = assay: micro-dilution broth method (MIC, MBC); type: cell-based, Escherichia coli
B. subtilis ATCC 6633 = assay: micro-dilution broth method (MIC, MBC); type: cell-based, Bacillus subtilis
HepG2 cells [3] = assay: NRU assay (lysosomal activity), 72 h exposure; type: cell-based, human; settings: mean ± SD, n = 3
Description: as §1
This method is based on staining living cells with neutral red, which readily diffuses through the plasma membrane and accumulates in lysosomes. […] After 10 min of shaking, the absorbance of the dissolved NR was measured using a Synergy HTX multi-mode reader (BioTek® Instruments Inc., Winooski, VT, USA) at 540 nm using a blank as a reference. Cytotoxicity was expressed as a percentage of the negative control. […]

[4] = B. fragilis ATCC 10240, value in brackets
[5] = H. pylori ATCC 43504, value in brackets
[6] = M. luteus ATCC 10240, value in brackets
[7] = S. typhimurium ATCC 14028, value in brackets
[8] = A. israeli ATCC 10049, value in brackets
[9] = S. aureus ATCC 25923, value in brackets
[10] = B. cereus ATCC 10876, value in brackets
[11] = P. acnes ATCC 11827, value in brackets
[12] = V. parvula ATCC 10790, value in brackets
[13] = F. nucleatum ATCC 25586, value in brackets
[14] = E. coli ATCC 25922, value in brackets
[15] = B. subtilis ATCC 6633, value in brackets

O=[N+]([O-])[O-].[Ag+] [AgNO3, Silver nitrate]
MBC (B. fragilis ATCC 10240; B. fragilis ATCC 10240): 62.5 mg/L
MIC (B. fragilis ATCC 10240; B. fragilis ATCC 10240): 15.6 mg/L
MBC (B. fragilis ATCC 10240; [4]): 0.37 µM/mL
MIC (B. fragilis ATCC 10240; [4]): 0.09 µM/mL
MBC (H. pylori ATCC 43504; H. pylori ATCC 43504): 15.6 mg/L
MIC (H. pylori ATCC 43504; H. pylori ATCC 43504): 15.6 mg/L
MBC (H. pylori ATCC 43504; [5]): 0.09 µM/mL
MIC (H. pylori ATCC 43504; [5]): 0.09 µM/mL
MBC (M. luteus ATCC 10240; M. luteus ATCC 10240): 31.3 mg/L
MIC (M. luteus ATCC 10240; M. luteus ATCC 10240): 3.9 mg/L
MBC (M. luteus ATCC 10240; [6]): 0.185 µM/mL
MIC (M. luteus ATCC 10240; [6]): 0.025 µM/mL
MBC ([1]; S. typhimurium ATCC 14028): 15.6 mg/L
MIC ([1]; S. typhimurium ATCC 14028): 15.6 mg/L
MBC [1, 7]: 0.09 µM/mL
MIC [1, 7]: 0.09 µM/mL
MBC (A. israeli ATCC 10049; A. israeli ATCC 10049): 0.49 mg/L
MIC (A. israeli ATCC 10049; A. israeli ATCC 10049): 0.49 mg/L
MBC (A. israeli ATCC 10049; [8]): 0.003 µM/mL
MIC (A. israeli ATCC 10049; [8]): 0.003 µM/mL
IC50 (HepG2 cells [2]): > 10 µM
MBC (S. aureus ATCC 25923; S. aureus ATCC 25923): 31.3 mg/L
MIC (S. aureus ATCC 25923; S. aureus ATCC 25923): 7.8 mg/L
MBC (S. aureus ATCC 25923; [9]): 0.185 µM/mL
MIC (S. aureus ATCC 25923; [9]): 0.049 µM/mL
MBC (B. cereus ATCC 10876; B. cereus ATCC 10876): 62.5 mg/L
MIC (B. cereus ATCC 10876; B. cereus ATCC 10876): 31.3 mg/L
MBC (B. cereus ATCC 10876; [10]): 0.37 µM/mL
MIC (B. cereus ATCC 10876; [10]): 0.185 µM/mL
MBC (P. acnes ATCC 11827; P. acnes ATCC 11827): 62.5 mg/L
MIC (P. acnes ATCC 11827; P. acnes ATCC 11827): 62.5 mg/L
MBC (P. acnes ATCC 11827; [11]): 0.37 µM/mL
MIC (P. acnes ATCC 11827; [11]): 0.37 µM/mL
MBC (V. parvula ATCC 10790; V. parvula ATCC 10790): 15.6 mg/L
MIC (V. parvula ATCC 10790; V. parvula ATCC 10790): 7.8 mg/L
MBC (V. parvula ATCC 10790; [12]): 0.09 µM/mL
MIC (V. parvula ATCC 10790; [12]): 0.049 µM/mL
MBC (F. nucleatum ATCC 25586; F. nucleatum ATCC 25586): 0.98 mg/L
MIC (F. nucleatum ATCC 25586; F. nucleatum ATCC 25586): 0.49 mg/L
MBC (F. nucleatum ATCC 25586; [13]): 0.006 µM/mL
MIC (F. nucleatum ATCC 25586; [13]): 0.003 µM/mL
MBC (E. coli ATCC 25922; E. coli ATCC 25922): 15.6 mg/L
MIC (E. coli ATCC 25922; E. coli ATCC 25922): 7.8 mg/L
MBC (E. coli ATCC 25922; [14]): 0.09 µM/mL
MIC (E. coli ATCC 25922; [14]): 0.049 µM/mL
MBC (B. subtilis ATCC 6633; B. subtilis ATCC 6633): 15.6 mg/L
MIC (B. subtilis ATCC 6633; B. subtilis ATCC 6633): 15.6 mg/L
MBC (B. subtilis ATCC 6633; [15]): 0.09 µM/mL
MIC (B. subtilis ATCC 6633; [15]): 0.09 µM/mL

O=S(=O)([O-])[O-].[Ag+].[Ag+] [Ag2SO4, silver sulfate]
MBC (B. fragilis ATCC 10240; B. fragilis ATCC 10240): 1000 mg/L
MIC (B. fragilis ATCC 10240; B. fragilis ATCC 10240): 250 mg/L
MBC (B. fragilis ATCC 10240; [4]): 3.2 µM/mL
MIC (B. fragilis ATCC 10240; [4]): 0.8 µM/mL
MBC (H. pylori ATCC 43504; H. pylori ATCC 43504): 15.6 mg/L
MIC (H. pylori ATCC 43504; H. pylori ATCC 43504): 15.6 mg/L
MBC (H. pylori ATCC 43504; [5]): 0.05 µM/mL
MIC (H. pylori ATCC 43504; [5]): 0.05 µM/mL
IC50 (HepG2 cells [3]): > 10 µM
MBC (M. luteus ATCC 10240; M. luteus ATCC 10240): 125 mg/L
MIC (M. luteus ATCC 10240; M. luteus ATCC 10240): 15.6 mg/L
MBC (M. luteus ATCC 10240; [6]): 0.4 µM/mL
MIC (M. luteus ATCC 10240; [6]): 0.05 µM/mL
MBC ([1]; S. typhimurium ATCC 14028): 250 mg/L
MIC ([1]; S. typhimurium ATCC 14028): 31.3 mg/L
MBC [1, 7]: 0.8 µM/mL
MIC [1, 7]: 0.1 µM/mL
MBC (A. israeli ATCC 10049; A. israeli ATCC 10049): 15.6 mg/L
MIC (A. israeli ATCC 10049; A. israeli ATCC 10049): 0.98 mg/L
MBC (A. israeli ATCC 10049; [8]): 0.05 µM/mL
MIC (A. israeli ATCC 10049; [8]): 0.003 µM/mL
IC50 (HepG2 cells [2]): > 10 µM
MBC (S. aureus ATCC 25923; S. aureus ATCC 25923): 31.3 mg/L
MIC (S. aureus ATCC 25923; S. aureus ATCC 25923): 15.6 mg/L
MBC (S. aureus ATCC 25923; [9]): 0.1 µM/mL
MIC (S. aureus ATCC 25923; [9]): 0.05 µM/mL
MBC (B. cereus ATCC 10876; B. cereus ATCC 10876): 500 mg/L
MIC (B. cereus ATCC 10876; B. cereus ATCC 10876): 31.3 mg/L
MBC (B. cereus ATCC 10876; [10]): 1.6 µM/mL
MIC (B. cereus ATCC 10876; [10]): 0.1 µM/mL
MBC (P. acnes ATCC 11827; P. acnes ATCC 11827): 500 mg/L
MIC (P. acnes ATCC 11827; P. acnes ATCC 11827): 125 mg/L
MBC (P. acnes ATCC 11827; [11]): 1.6 µM/mL
MIC (P. acnes ATCC 11827; [11]): 0.4 µM/mL
MBC (V. parvula ATCC 10790; V. parvula ATCC 10790): 62.5 mg/L
MIC (V. parvula ATCC 10790; V. parvula ATCC 10790): 62.5 mg/L
MBC (V. parvula ATCC 10790; [12]): 0.2 µM/mL
MIC (V. parvula ATCC 10790; [12]): 0.2 µM/mL
MBC (F. nucleatum ATCC 25586; F. nucleatum ATCC 25586): 31.3 mg/L
MIC (F. nucleatum ATCC 25586; F. nucleatum ATCC 25586): 31.3 mg/L
MBC (F. nucleatum ATCC 25586; [13]): 0.1 µM/mL
MIC (F. nucleatum ATCC 25586; [13]): 0.1 µM/mL
MBC (E. coli ATCC 25922; E. coli ATCC 25922): 62.5 mg/L
MIC (E. coli ATCC 25922; E. coli ATCC 25922): 62.5 mg/L
MBC (E. coli ATCC 25922; [14]): 0.2 µM/mL
MIC (E. coli ATCC 25922; [14]): 0.2 µM/mL
MBC (B. subtilis ATCC 6633; B. subtilis ATCC 6633): 31.3 mg/L
MIC (B. subtilis ATCC 6633; B. subtilis ATCC 6633): 31.3 mg/L
MBC (B. subtilis ATCC 6633; [15]): 0.1 µM/mL
MIC (B. subtilis ATCC 6633; [15]): 0.1 µM/mL

Reference: article PMC8869984, “Multifunctional Silver(I) Complexes with Metronidazole Drug Reveal Antimicrobial Properties and Antitumor Activity against Human Hepatoma and Colorectal Adenocarcinoma Cells” (Cancers, 2022)
